Reference: article PMC10251674, “Synthesis of novel mono- and bis-pyrazolylthiazole derivatives as anti-liver cancer agents through EGFR/HER2 target inhibition” (BMC Chemistry, 2023)
Read-outs that look alike come from different tables or passages of the source.

Key:
HepG2 liver cancer cells = assay: MTT cytotoxicity assay against HepG2 cells; assay type: cell-based; settings: for IC50 / viability at 100 µM: Homo sapiens; for viability at 100 µM: read-out: cell viability at the highest concentration
Procedure: (§1) HepG2 liver cancer cells and THLE2 normal liver cells were bought from the National Research Institute in Egypt and cultured in “RPMI-1640” media containing L-Glutamine (Lonza Verviers SPRL, Belgium, cat#12-604F). Fetal bovine serum (Sigma-Aldrich, MO, USA) and penicillin–streptomycin at a concentration of 10% and 1%, respectively, were added to both cell lines (Lonza, Belgium). All cells were incubated following routine tissue culture work. Cells were treated with the compounds at (0.01, 0.1, 1, 10, and 100 µM) concentrations. Cell viability was assessed after 48 h using MTT solution (Promega, USA). Finally, Absorbance was subsequently measured (at 570 nm) using ELISA microplate reader (BIO-RAD, model iMark, Japan). The percentage of cell viability was calculated, and IC50 values were recorded using the GraphPad prism 7, as previously reported in the literature.

THLE2 normal liver cells = assay: MTT cytotoxicity assay against THLE2 cells; assay type: cell-based; settings: for IC50: Homo sapiens, THLE-2, MTT assay, 48 h, n = 3, read-out: IC50 ± SD THLE2
Procedure: as §1

EGFR kinase = target: T1, EGFR kinase (Homo sapiens, UniProt P00533); assay: EGFR kinase inhibitory assay (BPS Bioscience kit); assay type: biochemical; settings: average of three replicates, five concentrations
T1 construct: purchased BPS Bioscience 40321
Procedure: (§2) The autophosphorylation percentage inhibition of compounds was calculated by: 100-[Acontrol/Atreated-Control)] .

HER2 kinase = target: T2, HER2 kinase (Homo sapiens, UniProt P04626); assay: HER2 kinase inhibitory assay (BPS Bioscience kit); assay type: biochemical; settings: average of three replicates, five concentrations
T2 construct: purchased BPS Bioscience 40721
Procedure: as §2

HepG2 cells [1] = assay: Annexin V/PI staining, flow cytometry; assay type: cell-based; settings: HepG2, treated at IC50, 48 h
Procedure: Overnight, 6-well culture plates were stocked with HepG2 cells (3–5 × 10^5 cells/well). […] After that, the cells and the medium supernatants were separated and washed with ice-cold PBS. The next step was suspending the cells in 100 µL of annexin binding buffer solution "25 mM CaCl2, 1.4 M NaCl, and 0.1 M Hepes/NaOH, pH 7.4″ and incubation with “Annexin V-FITC solution (1:100) and propidium iodide (PI)” at a concentration equals 10 µg/mL in the dark for 30 min. After the cells were stained, they were gathered by Cytoflex FACS equipment. We used cytExpert to examine the data.

HepG2 cells [2] = assay: Cell cycle analysis by DNA flow cytometry; assay type: cell-based; settings: HepG2, treated at IC50, 48 h
P53 = assay: RT-PCR gene expression of P53; assay type: cell-based; settings: HepG2, treated at IC50, 48 h, normalised to β-actin, control = 1
Procedure: (§3) Genes of P53, Bax, and Caspases-3,8,9 were screened as proapoptotic genes, while Bcl-2 was screened as antiapoptotic, therefore, we measured their gene expression to investigate the apoptotic process. […] After treatment, RT-PCR reaction was carried out following routine work. The Ct values were then used to determine the fold change in gene expression between samples after normalization to the β-actin reference gene.

Bax = assay: RT-PCR gene expression of Bax; assay type: cell-based; settings: HepG2, treated at IC50, 48 h, normalised to β-actin, control = 1
Procedure: as §3

caspase-3 = assay: RT-PCR gene expression of caspase-3; assay type: cell-based; settings: HepG2, treated at IC50, 48 h, normalised to β-actin, control = 1
Procedure: as §3

caspase-8 = assay: RT-PCR gene expression of caspase-8; assay type: cell-based; settings: HepG2, treated at IC50, 48 h, normalised to β-actin, control = 1
Procedure: as §3

caspase-9 = assay: RT-PCR gene expression of caspase-9; assay type: cell-based; settings: HepG2, treated at IC50, 48 h, normalised to β-actin, control = 1
Procedure: as §3

Bcl-2 = assay: RT-PCR gene expression of Bcl-2; assay type: cell-based; settings: HepG2, treated at IC50, 48 h, normalised to β-actin, control = 1
Procedure: as §3

[3] = HepG2 cells, MTT assay, 48 h, n = 3, read-out: IC50 ± SD HepG2
[4] = HepG2, dose-response curve fit in Fig. 5
[5] = HepG2, dose-response curve fit in Fig. 5, read-out: IC50 (unit inferred)

T1 sequence (P00533 25-1210): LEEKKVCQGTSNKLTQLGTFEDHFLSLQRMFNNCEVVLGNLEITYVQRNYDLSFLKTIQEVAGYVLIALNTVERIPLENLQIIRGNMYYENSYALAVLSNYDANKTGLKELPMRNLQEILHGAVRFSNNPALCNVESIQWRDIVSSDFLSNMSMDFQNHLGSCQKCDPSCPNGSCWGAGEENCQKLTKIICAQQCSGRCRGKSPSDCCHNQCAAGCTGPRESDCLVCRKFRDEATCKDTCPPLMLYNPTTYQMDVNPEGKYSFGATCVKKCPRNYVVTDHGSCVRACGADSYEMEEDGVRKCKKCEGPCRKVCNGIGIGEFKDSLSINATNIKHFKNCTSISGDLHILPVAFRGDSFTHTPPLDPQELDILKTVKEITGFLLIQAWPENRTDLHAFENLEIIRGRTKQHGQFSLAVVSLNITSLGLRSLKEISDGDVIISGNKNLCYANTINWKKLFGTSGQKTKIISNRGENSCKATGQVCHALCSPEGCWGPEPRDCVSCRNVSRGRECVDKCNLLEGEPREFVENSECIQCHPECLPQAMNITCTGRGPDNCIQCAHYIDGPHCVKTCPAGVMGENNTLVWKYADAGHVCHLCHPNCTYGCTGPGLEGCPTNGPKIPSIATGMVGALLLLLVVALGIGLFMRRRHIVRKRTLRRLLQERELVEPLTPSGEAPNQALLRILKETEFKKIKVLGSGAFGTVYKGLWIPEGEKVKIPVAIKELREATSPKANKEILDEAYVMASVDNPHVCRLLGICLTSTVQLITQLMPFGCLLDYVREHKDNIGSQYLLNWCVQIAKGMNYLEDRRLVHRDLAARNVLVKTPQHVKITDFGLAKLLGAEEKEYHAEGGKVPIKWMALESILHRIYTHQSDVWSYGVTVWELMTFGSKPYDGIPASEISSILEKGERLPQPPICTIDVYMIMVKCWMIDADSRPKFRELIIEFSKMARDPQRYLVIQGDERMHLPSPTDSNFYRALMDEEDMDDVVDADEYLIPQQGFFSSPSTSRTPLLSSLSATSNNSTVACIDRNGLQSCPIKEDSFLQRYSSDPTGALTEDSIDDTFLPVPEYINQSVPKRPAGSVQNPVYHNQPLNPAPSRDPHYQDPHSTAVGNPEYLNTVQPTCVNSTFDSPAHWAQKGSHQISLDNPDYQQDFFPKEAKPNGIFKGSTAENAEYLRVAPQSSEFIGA
T2 sequence (P04626 23-1255): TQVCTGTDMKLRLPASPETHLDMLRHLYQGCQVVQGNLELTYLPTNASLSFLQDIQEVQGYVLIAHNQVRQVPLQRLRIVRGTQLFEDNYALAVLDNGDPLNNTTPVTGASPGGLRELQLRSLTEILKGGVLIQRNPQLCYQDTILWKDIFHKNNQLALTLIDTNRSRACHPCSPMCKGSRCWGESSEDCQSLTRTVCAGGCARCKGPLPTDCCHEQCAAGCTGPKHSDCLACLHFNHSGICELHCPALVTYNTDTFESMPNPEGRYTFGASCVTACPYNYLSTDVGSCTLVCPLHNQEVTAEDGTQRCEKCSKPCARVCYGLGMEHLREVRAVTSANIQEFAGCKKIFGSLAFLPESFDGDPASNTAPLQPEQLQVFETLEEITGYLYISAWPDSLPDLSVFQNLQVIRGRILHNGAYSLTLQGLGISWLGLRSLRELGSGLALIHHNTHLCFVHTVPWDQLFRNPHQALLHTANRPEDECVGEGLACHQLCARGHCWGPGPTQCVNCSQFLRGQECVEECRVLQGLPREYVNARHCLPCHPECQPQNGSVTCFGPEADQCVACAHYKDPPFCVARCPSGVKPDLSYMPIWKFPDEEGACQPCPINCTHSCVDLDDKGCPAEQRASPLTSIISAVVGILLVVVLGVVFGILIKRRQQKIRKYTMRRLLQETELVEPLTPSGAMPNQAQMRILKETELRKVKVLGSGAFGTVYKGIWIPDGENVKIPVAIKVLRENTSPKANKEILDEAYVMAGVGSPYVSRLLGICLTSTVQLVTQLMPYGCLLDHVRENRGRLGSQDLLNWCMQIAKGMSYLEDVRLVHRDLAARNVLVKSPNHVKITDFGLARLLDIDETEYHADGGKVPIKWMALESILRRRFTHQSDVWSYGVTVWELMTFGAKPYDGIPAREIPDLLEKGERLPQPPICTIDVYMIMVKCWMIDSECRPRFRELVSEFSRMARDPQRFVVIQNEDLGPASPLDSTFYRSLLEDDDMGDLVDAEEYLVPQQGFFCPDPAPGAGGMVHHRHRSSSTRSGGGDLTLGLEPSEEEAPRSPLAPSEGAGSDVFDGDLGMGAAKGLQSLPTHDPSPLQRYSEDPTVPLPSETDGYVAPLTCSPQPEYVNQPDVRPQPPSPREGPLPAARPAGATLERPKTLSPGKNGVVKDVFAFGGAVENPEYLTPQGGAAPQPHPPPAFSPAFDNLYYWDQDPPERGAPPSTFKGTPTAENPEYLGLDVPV

SMILES	melting point [°C]	IC50 (HepG2 liver cancer cells; [3]) [µM]	IC50 (THLE2 normal liver cells) [µM]	also measured
CC(=NNc1nc(-c2nn(-c3ccccc3)cc2C(=O)c2ccc3ccccc3c2)cs1)c1nc2ccccc2s1 [Compound 13, 2-(2-(1-(Benzothiazol-2-yl)ethylidene)hydrazinyl)-4-(4-(2-naphthoyl)-1-phenylpyrazol-3-yl)-thiazole]	143 to 145	5.16 ± 0.29	≥ 50	–
COc1ccc(C=NNc2nc(-c3nn(-c4ccccc4)cc3C(=O)c3ccc4ccccc4c3)cs2)cc1 [Compound 8c, 2-(4-Methoxybenzylidenehydrazinyl)-4-(4-(2-naphthoyl)-1-phenyl-pyrazol-3-yl)thiazole]	–	7.39 ± 0.29	≥ 50	–
CS(=O)(=O)CCNCc1ccc(-c2ccc3ncnc(Nc4ccc(OCc5cccc(F)c5)c(Cl)c4)c3c2)o1 [Lapatinib, reference compound]	–	7.45 ± 0.32	≥ 50	–
CC(=NNc1nc(-c2nn(-c3ccccc3)cc2C(=O)c2ccc3ccccc3c2)cs1)c1cc2ccccc2oc1=O [Compound 14, 2-(2-(1-(Coumarin-3-yl)ethylidene)hydrazinyl)-4-(4-(2-naphthoyl)-1-phenylpyrazol-3-yl)-thiazole]	239 to 241	4.36 ± 0.38	39.5 ± 1.74	–
CC(=NNc1nc(-c2nn(-c3ccccc3)cc2C(=O)c2ccc3ccccc3c2)cs1)c1cc2ccccc2o1 [Compound 12, 2-(2-(1-(Benzofuran-2-yl)ethylidene)hydrazinyl)-4-(4-(2-naphthoyl)-1-phenylpyrazol-3-yl)thiazole]	164 to 166	5.48 ± 0.66	≥ 50	–
O=C(c1ccc2ccccc2c1)c1cn(-c2ccccc2)nc1C(=O)CBr [Compound 6, 3-Bromoacetyl-4-(2-naphthoyl)-1-phenyl-1H-pyrazole]	–	16.3 ± 0.29	34.5 ± 1.26	–
O=C(c1ccc2ccccc2c1)c1cn(-c2ccccc2)nc1-c1csc(N/N=C/c2ccc(OCCCCOc3ccc(/C=N/Nc4nc(-c5nn(-c6ccccc6)cc5C(=O)c5ccc6ccccc6c5)cs4)cc3)cc2)n1 [Compound 18c, 1,4-Bis(4-((2-(4-((2-naphthoyl)-1-phenyl-1H-pyrazol-3-yl)thiazol-2-yl)hydrazono)methyl)-phenoxy)butane]	–	0.97 ± 0.09	≥ 50	LogIC50 (HepG2 liver cancer cells; [4]): -0.01146; enhancement in anti-cancer potency on doubling the pharmacophoric scaffold (HepG2 liver cancer cells; HepG2 IC50 of 18c vs. 8c): about eightfold; IC50 (HepG2 liver cancer cells; [5]): 0.974 µM; viability at 100 µM (HepG2 liver cancer cells; HepG2 cells): 5%; cytotoxicity against THLE2 cells (in words) (THLE2 normal liver cells): safe (non-cytotoxic); IC50 (EGFR kinase): 0.00498 µM; IC50 (HER2 kinase): 0.00985 µM; increase of death rate (apoptotic cell death) (HepG2 cells [1]; vs. untreated control): 63.6 fold; late apoptosis (HepG2 cells [1]; AV+/PI+): 26.07%; early apoptosis (HepG2 cells [1]; AV+/PI-): 15.28%; total apoptosis (HepG2 cells [1]; untreated control 0.65%): 41.35%; cell cycle phase at which proliferation is arrested (HepG2 cells [2]): S-phase; cell population at S-phase (HepG2 cells [2]; control 37.8%): 50.5%; P53 gene expression fold change (P53): 8.6 fold; Bax gene expression fold change (Bax): 8.9 fold; caspase-3 gene expression fold change (caspase-3): 9 fold; caspase-8 gene expression fold change (caspase-8): 2.3 fold; caspase-9 gene expression fold change (caspase-9): 7.6 fold; Bcl-2 gene expression fold change (Bcl-2): 0.34 fold
Cc1ccc(C=NNc2nc(-c3nn(-c4ccccc4)cc3C(=O)c3ccc4ccccc4c3)cs2)cc1 [Compound 8b, 2-(4-Methylbenzylidenehydrazinyl)-4-(4-(2-naphthoyl)-1-phenylpyrazol-3-yl)thiazole]	–	8.16 ± 0.34	41.6 ± 1.86	–

More lines, main results first:

melting point [°C]	SMILES	IC50 (HepG2 liver cancer cells; [3]) [µM]	IC50 (THLE2 normal liver cells) [µM]	also measured
230 to 232	O=C(c1ccc2ccccc2c1)c1cn(-c2ccccc2)nc1-c1csc(N/N=C\c2ccccc2OCCCCOc2ccccc2/C=N\Nc2nc(-c3nn(-c4ccccc4)cc3C(=O)c3ccc4ccccc4c3)cs2)n1 [Compound 21c, 1,4-Bis(2-((2-(4-((2-naphthoyl)-1-phenyl-1H-pyrazol-3-yl)thiazol-2-yl)hydrazono)methyl)-phenoxy)butane]	4.12 ± 0.19	45.6 ± 1.87	–
209 to 211	O=C(c1ccc2ccccc2c1)c1cn(-c2ccccc2)nc1-c1csc(N/N=C\c2ccccc2OCCCOc2ccccc2/C=N\Nc2nc(-c3nn(-c4ccccc4)cc3C(=O)c3ccc4ccccc4c3)cs2)n1 [Compound 21b, 1,3-Bis(2-((2-(4-((2-naphthoyl)-1-phenyl-1H-pyrazol-3-yl)thiazol-2-yl)hydrazono)methyl)-phenoxy)propane]	9.36 ± 0.47	49.4 ± 2.1	–
166 to 168	O=C(c1ccc2ccccc2c1)c1cn(-c2ccccc2)nc1-c1csc(N/N=C\c2ccccc2OCCOc2ccccc2/C=N\Nc2nc(-c3nn(-c4ccccc4)cc3C(=O)c3ccc4ccccc4c3)cs2)n1 [Compound 21a, 1,2-Bis(2-((2-(4-((2-naphthoyl)-1-phenyl-1H-pyrazol-3-yl)thiazol-2-yl)hydrazono)methyl)-phenoxy)ethane]	3.26 ± 0.14	≥ 50	LogIC50 (HepG2 liver cancer cells; [4]): 0.514; IC50 (HepG2 liver cancer cells; [5]): 3.27 µM; viability at 100 µM (HepG2 liver cancer cells; HepG2 cells): 13%; cytotoxicity against THLE2 cells (in words) (THLE2 normal liver cells): safe (non-cytotoxic); IC50 (EGFR kinase): 0.0058 µM; IC50 (HER2 kinase): 0.0142 µM
187 to 189	O=C(c1ccc2ccccc2c1)c1cn(-c2ccccc2)nc1-c1csc(N/N=C/c2ccc(OCCOc3ccc(/C=N/Nc4nc(-c5nn(-c6ccccc6)cc5C(=O)c5ccc6ccccc6c5)cs4)cc3)cc2)n1 [Compound 18a, 1,2-Bis(4-((2-(4-((2-naphthoyl)-1-phenyl-1H-pyrazol-3-yl)thiazol-2-yl)hydrazono)methyl)-phenoxy)ethane]	8.34 ± 0.48	39.8 ± 1.59	–
200 to 202	O=C(c1ccc2ccccc2c1)c1cn(-c2ccccc2)nc1-c1csc(N/N=C/c2ccc(OCCCOc3ccc(/C=N/Nc4nc(-c5nn(-c6ccccc6)cc5C(=O)c5ccc6ccccc6c5)cs4)cc3)cc2)n1 [Compound 18b, 1,3-Bis(4-((2-(4-((2-naphthoyl)-1-phenyl-1H-pyrazol-3-yl)thiazol-2-yl)hydrazono)methyl)-phenoxy)propane]	3.57 ± 0.67	≥ 50	LogIC50 (HepG2 liver cancer cells; [4]): 0.5536; IC50 (HepG2 liver cancer cells; [5]): 3.58 µM; viability at 100 µM (HepG2 liver cancer cells; HepG2 cells): 9%; cytotoxicity against THLE2 cells (in words) (THLE2 normal liver cells): safe (non-cytotoxic); IC50 (EGFR kinase): 0.00704 µM; IC50 (HER2 kinase): 0.0163 µM
231 to 233	O=C(c1ccc2ccccc2c1)c1cn(-c2ccccc2)nc1-c1csc(NN=Cc2ccc([N+](=O)[O-])cc2)n1 [Compound 8d, 2-(4-Nitrobenzylidenehydrazinyl)-4-(4-(2-naphthoyl)-1-phenyl-pyrazol-3-yl)thiazole]	11.3 ± 0.34	≥ 50	–
138 to 140	O=C(c1ccc2ccccc2c1)c1cn(-c2ccccc2)nc1-c1csc(NN=Cc2ccccc2)n1 [Compound 8a, 2-(Benzylidenehydrazinyl)-4-(4-(2-naphthoyl)-1-phenyl-pyrazol-3-yl)thiazole]	8.64 ± 0.29	46.2 ± 2.01	–
